# Experimental data reported in patent publication US11716992B2, “5A5B6C tricyclic spirolactone derivative, preparation method therefor and use thereof” (NANKAI UNIVERSITY, priority 2017, dated 2023).
# Test system: Pellicularia sasakii
# Assay: Fungicidal activity, fungicide growth rate method, PS
# Format: cell-based
# Conditions: 50 μg/mL; read-out: fungicidal activity (growth inhibition rate), PS
row,Structure (SMILES),inhibition at 50 µg/mL [%]
1,C=CC[C@@H]1C[C@]2(O)CCO[C@@]23C[C@@H](Cl)[C@H](O)C[C@H]13 [Zyj07-100],23
2,C=CC[C@@H]1C[C@]2(O)CCO[C@@]23C[C@@H](O)[C@H](Cl)C[C@H]13 [Zyj07-101],0
3,O=C1C[C@@]2(O)CC[C@H]3C[C@@H]4O[C@@H]4C[C@@]32O1 [Zyj07-102],0

# Test system: Helicoverpa armigera (Hübner)
# Assay: Insecticidal activity against Helicoverpa armigera (Hübner)
# Format: in vivo
# Conditions: Helicoverpa armigera; 100 μg/mL; read-out: insecticidal activity, Helicoverpa armigera (Hübner)
row,Structure (SMILES),pest or weed control at 100 µg/mL [%]
1,C=CC[C@@H]1C[C@]2(O)CCO[C@@]23C[C@@H](Cl)[C@H](O)C[C@H]13 [Zyj07-100],0
2,C=CC[C@@H]1C[C@]2(O)CCO[C@@]23C[C@@H](O)[C@H](Cl)C[C@H]13 [Zyj07-101],20
3,O=C1C[C@@]2(O)CC[C@H]3C[C@@H]4O[C@@H]4C[C@@]32O1 [Zyj07-102],0

# Test system: Alternaria solani
# Assay: Fungicidal activity, fungicide growth rate method, AS
# Format: cell-based
# Conditions: Alternaria solani, 50 μg/mL; read-out: fungicidal activity (growth inhibition rate), AS
row,Structure (SMILES),inhibition at 50 µg/mL [%]
1,C=CC[C@@H]1C[C@]2(O)CCO[C@@]23C[C@@H](Cl)[C@H](O)C[C@H]13 [Zyj07-100],14
2,C=CC[C@@H]1C[C@]2(O)CCO[C@@]23C[C@@H](O)[C@H](Cl)C[C@H]13 [Zyj07-101],5
3,O=C1C[C@@]2(O)CC[C@H]3C[C@@H]4O[C@@H]4C[C@@]32O1 [Zyj07-102],0

# Test system: Phytophthora infestans (Mont.) de Bary
# Assay: microbe, parasite or virus in culture
# Format: cell-based
# Conditions: Phytophthora infestans, read-out: fungicidal activity (growth inhibition rate), PI, 50 μg/mL
row,Structure (SMILES),inhibition at 50 µg/mL [%]
1,C=CC[C@@H]1C[C@]2(O)CCO[C@@]23C[C@@H](Cl)[C@H](O)C[C@H]13 [Zyj07-100],38
2,C=CC[C@@H]1C[C@]2(O)CCO[C@@]23C[C@@H](O)[C@H](Cl)C[C@H]13 [Zyj07-101],> 60
3,O=C1C[C@@]2(O)CC[C@H]3C[C@@H]4O[C@@H]4C[C@@]32O1 [Zyj07-102],23

# Test system: Botrytis cinerea
# Assay: Fungicidal activity, fungicide growth rate method, BC
# Format: cell-based
# Conditions: Botrytis cinerea, 50 μg/mL; read-out: fungicidal activity (growth inhibition rate), BC
row,Structure (SMILES),inhibition at 50 µg/mL [%]
1,C=CC[C@@H]1C[C@]2(O)CCO[C@@]23C[C@@H](Cl)[C@H](O)C[C@H]13 [Zyj07-100],14
2,C=CC[C@@H]1C[C@]2(O)CCO[C@@]23C[C@@H](O)[C@H](Cl)C[C@H]13 [Zyj07-101],> 50
3,O=C1C[C@@]2(O)CC[C@H]3C[C@@H]4O[C@@H]4C[C@@]32O1 [Zyj07-102],41

# Test system: Physalospora piricola
# Assay: Fungicidal activity, fungicide growth rate method, PP
# Format: cell-based
# Conditions: 50 μg/mL; read-out: fungicidal activity (growth inhibition rate), PP
row,Structure (SMILES),inhibition at 50 µg/mL [%]
1,C=CC[C@@H]1C[C@]2(O)CCO[C@@]23C[C@@H](Cl)[C@H](O)C[C@H]13 [Zyj07-100],29
2,C=CC[C@@H]1C[C@]2(O)CCO[C@@]23C[C@@H](O)[C@H](Cl)C[C@H]13 [Zyj07-101],> 50
3,O=C1C[C@@]2(O)CC[C@H]3C[C@@H]4O[C@@H]4C[C@@]32O1 [Zyj07-102],42

# Test system: Ostrinia furnacalis
# Assay: Insecticidal activity against Ostrinia furnacalis
# Format: in vivo
# Conditions: Ostrinia furnacalis; 100 μg/mL; read-out: insecticidal activity, Ostrinia furnacalis
row,Structure (SMILES),pest or weed control at 100 µg/mL [%]
1,C=CC[C@@H]1C[C@]2(O)CCO[C@@]23C[C@@H](Cl)[C@H](O)C[C@H]13 [Zyj07-100],0
2,C=CC[C@@H]1C[C@]2(O)CCO[C@@]23C[C@@H](O)[C@H](Cl)C[C@H]13 [Zyj07-101],15
3,O=C1C[C@@]2(O)CC[C@H]3C[C@@H]4O[C@@H]4C[C@@]32O1 [Zyj07-102],0

# Test system: Tobacco Mosaic Virus
# Assay: Anti-TMV inactivation activity on tobacco plants
# Format: in vivo
# Conditions: compound mixed with TMV solution 30 minutes, lesions checked three days later
row,Structure (SMILES),TMV inactivation (anti-TMV activity) [%]
1,O=C1C[C@@]2(O)CC[C@H]3C[C@@H]4O[C@@H]4C[C@@]32O1 [Zyj07-102],14

# Test system: Cercospora arachidicola
# Assay: Fungicidal activity, fungicide growth rate method, CA
# Format: cell-based
# Conditions: Mycosphaerella arachidis, 50 μg/mL; read-out: fungicidal activity (growth inhibition rate), CA
row,Structure (SMILES),inhibition at 50 µg/mL [%]
1,C=CC[C@@H]1C[C@]2(O)CCO[C@@]23C[C@@H](Cl)[C@H](O)C[C@H]13 [Zyj07-100],46
2,C=CC[C@@H]1C[C@]2(O)CCO[C@@]23C[C@@H](O)[C@H](Cl)C[C@H]13 [Zyj07-101],14
3,O=C1C[C@@]2(O)CC[C@H]3C[C@@H]4O[C@@H]4C[C@@]32O1 [Zyj07-102],14

# Test system: wheat Gibberella zeae
# Assay: microbe, parasite or virus in culture
# Format: cell-based
# Conditions: Fusarium graminearum, read-out: fungicidal activity (growth inhibition rate), GZ, 50 μg/mL
row,Structure (SMILES),inhibition at 50 µg/mL [%]
1,C=CC[C@@H]1C[C@]2(O)CCO[C@@]23C[C@@H](Cl)[C@H](O)C[C@H]13 [Zyj07-100],13
2,C=CC[C@@H]1C[C@]2(O)CCO[C@@]23C[C@@H](O)[C@H](Cl)C[C@H]13 [Zyj07-101],3
3,O=C1C[C@@]2(O)CC[C@H]3C[C@@H]4O[C@@H]4C[C@@]32O1 [Zyj07-102],27

# Test system: Mythimna separate (Walker)
# Assay: Insecticidal activity against Mythimna separate (Walker)
# Format: in vivo
# Conditions: Mythimna, 100 μg/mL; read-out: insecticidal activity, Mythimna separate (Walker)
row,Structure (SMILES),pest or weed control at 100 µg/mL [%]
1,C=CC[C@@H]1C[C@]2(O)CCO[C@@]23C[C@@H](Cl)[C@H](O)C[C@H]13 [Zyj07-100],10
2,C=CC[C@@H]1C[C@]2(O)CCO[C@@]23C[C@@H](O)[C@H](Cl)C[C@H]13 [Zyj07-101],> 30
3,O=C1C[C@@]2(O)CC[C@H]3C[C@@H]4O[C@@H]4C[C@@]32O1 [Zyj07-102],0

# Test system: not given
# Assay: not given
# Conditions: not given
row,Structure (SMILES),melting point [°C]
1,C=CC[C@@H]1C[C@]2(O)CCO[C@@]23C[C@@H](Cl)[C@H](O)C[C@H]13 [Zyj07-100],134 to 136
2,C=CC[C@@H]1C[C@]2(O)CCO[C@@]23C[C@@H](O)[C@H](Cl)C[C@H]13 [Zyj07-101],143 to 144
3,O=C1C[C@@]2(O)CC[C@H]3C[C@@H]4O[C@@H]4C[C@@]32O1 [Zyj07-102],119 to 120

# Test system: Rhizoctonia cerealis
# Assay: Fungicidal activity, fungicide growth rate method, RC
# Format: cell-based
# Conditions: Ceratobasidium cereale, 50 μg/mL; read-out: fungicidal activity (growth inhibition rate), RC
row,Structure (SMILES),inhibition at 50 µg/mL [%]
1,C=CC[C@@H]1C[C@]2(O)CCO[C@@]23C[C@@H](Cl)[C@H](O)C[C@H]13 [Zyj07-100],0
2,C=CC[C@@H]1C[C@]2(O)CCO[C@@]23C[C@@H](O)[C@H](Cl)C[C@H]13 [Zyj07-101],29
3,O=C1C[C@@]2(O)CC[C@H]3C[C@@H]4O[C@@H]4C[C@@]32O1 [Zyj07-102],0

# Test system: Sclerotinia sclerotiorum
# Assay: Fungicidal activity, fungicide growth rate method, SS
# Format: cell-based
# Conditions: Sclerotinia sclerotiorum, 50 μg/mL
row,Structure (SMILES),inhibition at 50 µg/mL [%]
1,O=C1C[C@@]2(O)CC[C@H]3C[C@@H]4O[C@@H]4C[C@@]32O1 [Zyj07-102],0
